pIC50: −log10 of the molar value. Where a name gives a salt, the structure may show the parent alone.
Target: PI3Kδ (p110δ/p85α) (Homo sapiens (Human), UniProt O00329)
Assay: PI3Kδ Scintillation Proximity Assay (Assay A3)
Assay type: biochemical
Conditions: column b, Assay A3 (SPA), 20 μM ATP
Excerpt: [γ-^33P]ATP (10 mCi/mL) was purchased from Perkin-Elmer (Waltham, Mass.). Lipid kinase substrate, D-myo-Phosphatidylinositol 4,5-bisphosphate (PtdIns(4,5)P2)D (+)-sn-1,2-di-O-octanoylglyceryl, 3-O-phospho linked (PIP2), CAS 204858-53-7, was purchased from Echelon Biosciences (Salt Lake City, Utah). PI3Kδ (p110δ/p85α) was purchased from Millipore (Bedford, Mass.). ATP, MgCl2, DTT, EDTA, MOPS and CHAPS were purchased from Sigma-Aldrich (St. Louis, Mo.). Wheat Germ Agglutinin (WGA) YSi SPA Scintillation Beads was purchased from GE healthcare life sciences (Piscataway, N.J.).
The kinase reaction was conducted in polystyrene 384-well matrix white plate from Thermo Fisher Scientific in a final volume of 25 μL. Inhibitors were first diluted serially in DMSO and added to the plate wells before the addition of other reaction components. The final concentration of DMSO in the assay was 0.5%. The PI3K assays were carried out at room temperature in 20 mM MOPS, pH 6.7, 10 mM MgCl2, 5 mM DTT and CHAPS 0.03%. Reactions were initiated by the addition of ATP, the final reaction mixture consisted of 20 μM PIP2, 20 μM ATP, 0.2 μCi [γ-^33P] ATP, 4 nM PI3Kδ. Reactions were incubated for 210 min and terminated by the addition of 40 μL SPA beads suspended in quench buffer: 150 mM potassium phosphate pH 8.0, 20% glycerol. 25 mM EDTA, 400 μM ATP. The final concentration of SPA beads was 1.0 mg/mL. After the plate sealing, plates were shaken overnight at room temperature and centrifuged at 1800 rpm for 10 minutes, the radioactivity of the product was determined by scintillation counting on Topcount (Perkin-Elmer). IC50 determination was performed by fitting the curve of percent control activity versus the log of the inhibitor concentration using the GraphPad Prism 3.0 software.

Chain of PI3Kδ (p110δ/p85α) (O00329 whole entry, species assumed): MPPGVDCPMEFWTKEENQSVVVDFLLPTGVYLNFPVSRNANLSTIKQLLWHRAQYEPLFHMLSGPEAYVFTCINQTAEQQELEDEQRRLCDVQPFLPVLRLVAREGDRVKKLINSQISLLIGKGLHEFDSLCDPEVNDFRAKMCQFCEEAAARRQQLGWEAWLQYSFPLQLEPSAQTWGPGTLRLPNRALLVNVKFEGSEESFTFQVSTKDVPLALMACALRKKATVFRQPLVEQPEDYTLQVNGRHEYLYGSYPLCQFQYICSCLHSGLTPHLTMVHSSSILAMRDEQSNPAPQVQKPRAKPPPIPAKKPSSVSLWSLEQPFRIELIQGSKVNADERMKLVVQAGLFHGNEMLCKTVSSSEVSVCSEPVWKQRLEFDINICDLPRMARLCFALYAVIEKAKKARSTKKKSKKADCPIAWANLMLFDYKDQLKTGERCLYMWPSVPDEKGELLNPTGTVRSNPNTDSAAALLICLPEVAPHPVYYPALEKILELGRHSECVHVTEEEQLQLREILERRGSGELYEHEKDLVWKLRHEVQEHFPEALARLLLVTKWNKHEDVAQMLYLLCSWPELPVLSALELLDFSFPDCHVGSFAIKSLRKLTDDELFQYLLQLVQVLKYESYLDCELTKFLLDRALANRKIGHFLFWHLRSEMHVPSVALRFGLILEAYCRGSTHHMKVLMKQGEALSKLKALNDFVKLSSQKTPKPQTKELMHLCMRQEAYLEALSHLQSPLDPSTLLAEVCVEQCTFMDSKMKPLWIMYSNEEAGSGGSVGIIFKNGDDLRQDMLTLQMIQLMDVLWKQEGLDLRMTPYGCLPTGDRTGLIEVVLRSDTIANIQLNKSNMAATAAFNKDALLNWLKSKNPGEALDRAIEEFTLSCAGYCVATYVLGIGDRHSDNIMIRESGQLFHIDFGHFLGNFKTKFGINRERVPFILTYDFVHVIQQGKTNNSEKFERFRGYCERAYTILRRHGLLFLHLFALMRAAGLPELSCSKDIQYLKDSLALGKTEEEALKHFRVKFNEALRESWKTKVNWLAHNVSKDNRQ
Chain of PI3Kδ (p110δ/p85α) (P27986 whole entry partner, species assumed): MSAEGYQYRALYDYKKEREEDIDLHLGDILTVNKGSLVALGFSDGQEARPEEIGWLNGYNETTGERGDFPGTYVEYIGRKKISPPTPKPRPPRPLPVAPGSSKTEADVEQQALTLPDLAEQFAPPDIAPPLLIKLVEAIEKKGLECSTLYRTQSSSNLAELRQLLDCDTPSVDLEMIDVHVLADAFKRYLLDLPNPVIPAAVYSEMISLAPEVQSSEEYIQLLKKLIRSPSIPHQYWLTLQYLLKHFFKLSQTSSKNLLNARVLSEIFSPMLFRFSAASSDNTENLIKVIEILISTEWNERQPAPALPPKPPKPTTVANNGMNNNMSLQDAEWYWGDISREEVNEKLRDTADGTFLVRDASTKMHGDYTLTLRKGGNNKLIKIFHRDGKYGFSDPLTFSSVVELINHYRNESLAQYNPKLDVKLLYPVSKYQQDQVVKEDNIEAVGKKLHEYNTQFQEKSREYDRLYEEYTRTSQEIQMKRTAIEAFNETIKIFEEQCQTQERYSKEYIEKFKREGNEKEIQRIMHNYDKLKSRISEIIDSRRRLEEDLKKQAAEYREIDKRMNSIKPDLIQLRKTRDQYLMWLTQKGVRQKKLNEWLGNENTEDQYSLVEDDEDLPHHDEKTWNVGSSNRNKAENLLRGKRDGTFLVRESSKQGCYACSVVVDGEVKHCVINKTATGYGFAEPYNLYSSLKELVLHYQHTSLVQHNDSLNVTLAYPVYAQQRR

Structure (SMILES) | pIC50
Cc1cc(-c2c(C(C)Nc3ncnc4[nH]cnc34)nc3cccc(C)n3c2=O)cnc1Cl (centres unmarked) [Example 81, 3-(6-Chloro-5-methylpyridin-3-yl)-6-methyl-2-[1-(9H-purin-6-ylamino)ethyl]-4H-pyrido[1,2-a]pyrimidin-4-one trifluoroacetic acid salt] | < 6.30
CC(Nc1ncnc2[nH]cnc12)c1nc2sccn2c(=O)c1-c1cc(F)cc(F)c1 (centres unmarked) [Example 25, 6-(3,5-difluorophenyl)-7-[1-(9H-purin-6-ylamino)ethyl]-5H-[1,3]thiazolo[3,2-a]pyrimidin-5-one] | < 6.30
CCc1cccc2nc(C(C)Nc3ncnc4[nH]cnc34)c(-c3cc(F)cc(F)c3)c(=O)n12 (centres unmarked) [Example 76, 3-(3,5-Difluorophenyl)-6-ethyl-2-[1-(9H-purin-6-ylamino)ethyl]-4H-pyrido[1,2-a]pyrimidin-4-one trifluoroacetic acid salt] | 6.30 to 7.00
CC(Nc1nc(N)nc2[nH]cnc12)c1nc2sccn2c(=O)c1-c1cccc(F)c1 (centres unmarked) [Example 26, 7-{1-[(2-amino-9H-purin-6-yl)amino]ethyl}-6-(3-fluorophenyl)-5H-[1,3]thiazolo[3,2-a]pyrimidin-5-one] | 6.30 to 7.00
Cc1cccc2nc(C(C)Nc3nc(N)nc4[nH]cnc34)c(-c3ccc(Cl)cc3)c(=O)n12 (centres unmarked) [Example 56, 2-{1-[(2-Amino-9H-purin-6-yl)amino]ethyl}-3-(4-chlorophenyl)-6-methyl-4H-pyrido[1,2-a]pyrimidin-4-one trifluoroacetic acid salt] | < 6.30
Cc1csc2nc(C(C)Nc3ncnc4[nH]cnc34)c(-c3cccc(Cl)c3)c(=O)n12 (centres unmarked) [Example 36, 6-(3-chlorophenyl)-3-methyl-7-[1-(9H-purin-6-ylamino)ethyl]-5H-[1,3]thiazolo[3,2-a]pyrimidin-5-one trifluoroacetic acid salt] | 6.30 to 7.00
Cc1csc2nc(C(C)Nc3ncnc4[nH]cnc34)c(-c3ccncc3)c(=O)n12 (centres unmarked) [Example 19, 3-methyl-7-[1-(9H-purin-6-ylamino)ethyl]-6-pyridin-4-yl-5H-[1,3]thiazolo[3,2-a]pyrimidin-5-one] | 6.30 to 7.00
Cc1csc2nc([C@H](C)Nc3nc(O)nc4[nH]cnc34)c(-c3cccc(F)c3)c(=O)n12 [Example 47, 6-(3-Fluorophenyl)-7-{(1S)-1-[(2-hydroxy-9H-purin-6-yl)amino]ethyl}-3-methyl-5H-[1,3]thiazolo[3,2-a]pyrimidin-5-one] | 6.30 to 7.00
Cc1cccc2nc(C(C)Nc3ncnc4[nH]cnc34)c(-c3ccc(F)c(F)c3)c(=O)n12 (centres unmarked) [Example 68, 3-(3,4-Difluorophenyl)-6-methyl-2-[1-(9H-purin-6-ylamino)ethyl]-4H-pyrido[1,2-a]pyrimidin-4-one trifluoroacetic acid salt] | 6.30 to 7.00
CC(Nc1nc(N)nc2[nH]cnc12)c1nc2sccn2c(=O)c1-c1cc(F)cc(F)c1 (centres unmarked) [Example 24, 7-{1-[(2-amino-9H-purin-6-yl)amino]ethyl}-6-(3,5-difluorophenyl)-5H-[1,3]thiazolo[3,2-a]pyrimidin-5-one] | < 6.30
Cc1csc2nc(C(C)Nc3nc(F)nc4[nH]cnc34)c(-c3cc(F)cc(F)c3)c(=O)n12 (centres unmarked) [Example 18, 6-(3,5-difluorophenyl)-7-{1-[(2-fluoro-9H-purin-6-yl)amino]ethyl}-3-methyl-5H-[1,3]thiazolo[3,2-a]pyrimidin-5-one] | 6.30 to 7.00
CC(Nc1ncnc2[nH]cnc12)c1nc2sccn2c(=O)c1-c1cccc(F)c1 (centres unmarked) [Example 28, 6-(3-fluorophenyl)-7-[1-(9H-purin-6-ylamino)ethyl]-5H-[1,3]thiazolo[3,2-a]pyrimidin-5-one] | < 6.30
Cc1cccc2nc(C(C)Nc3ncnc4[nH]cnc34)c(-c3ccc(C#N)cc3)c(=O)n12 (centres unmarked) [Example 61, 4-{6-Methyl-4-oxo-2-[1-(9H-purin-6-ylamino)ethyl]-4H-pyrido[1,2-a]pyrimidin-3-yl}benzonitrile trifluoroacetic acid salt] | < 6.30
Cc1cccc2nc(C(C)Nc3ncnc4[nH]cnc34)c(-c3cc(F)cc(F)c3)c(=O)n12 (centres unmarked) [Example 69, 3-(3,5-Difluorophenyl)-6-methyl-2-[1-(9H-purin-6-ylamino)ethyl]-4H-pyrido[1,2-a]pyrimidin-4-one trifluoroacetic acid salt] | 6.30 to 7.00
CC(Nc1nc(N)nc2[nH]cnc12)c1nc2ccccn2c(=O)c1-c1cc(F)cc(F)c1 (centres unmarked) [Example 80, 2-{1-[(2-Amino-9H-purin-6-yl)amino]ethyl}-3-(3,5-difluorophenyl)-4H-pyrido[1,2-a]pyrimidin-4-one trifluoroacetic acid salt] | 6.30 to 7.00

The next lines start with the values.

pIC50 | Structure (SMILES)
6.30 to 7.00 | Cc1ccccc1-c1c(C(C)Nc2ncnc3[nH]cnc23)nc2cccc(C)n2c1=O (centres unmarked) [Example 63, 6-Methyl-3-(2-methylphenyl)-2-[1-(9H-purin-6-ylamino)ethyl]-4H-pyrido[1,2-a]pyrimidin-4-one trifluoroacetic acid salt]
6.30 to 7.00 | Cc1cccc2nc(C(C)Nc3ncnc4[nH]cnc34)c(-c3cccc(Cl)c3)c(=O)n12 (centres unmarked) [Example 53, 3-(3-Chlorophenyl)-6-methyl-2-[1-(9H-purin-6-ylamino)ethyl]-4H-pyrido[1,2-a]pyrimidin-4-one trifluoroacetic acid salt]
6.30 to 7.00 | CC(Nc1nc(N)nc2[nH]cnc12)c1nc2sccn2c(=O)c1-c1ccccc1 (centres unmarked) [Example 27, 7-{1-[(2-amino-9H-purin-6-yl)amino]ethyl}-6-phenyl-5H-[1,3]thiazolo[3,2-a]pyrimidin-5-one]
> 7.30 | Cc1cccc2nc(C(C)Nc3ncnc4[nH]cnc34)c(-c3cc(F)ccc3F)c(=O)n12 (centres unmarked) [Example 67, 3-(2,5-Difluorophenyl)-6-methyl-2-[1-(9H-purin-6-ylamino)ethyl]-4H-pyrido[1,2-a]pyrimidin-4-one trifluoroacetic acid salt]
7.00 to 7.30 | CC(Nc1ncnc2[nH]cnc12)c1nc2scc(C(F)(F)F)n2c(=O)c1-c1cccc(F)c1 (centres unmarked) [Example 48, 6-(3-Fluorophenyl)-7-[1-(9H-purin-6-ylamino)ethyl]-3-(trifluoromethyl)-5H-[1,3]thiazolo[3,2-a]pyrimidin-5-one]
> 7.30 | Cc1cccc2nc(C(C)Nc3ncnc4[nH]cnc34)c(-c3cccc(F)c3F)c(=O)n12 (centres unmarked) [Example 66, 3-(2,3-Difluorophenyl)-6-methyl-2-[1-(9H-purin-6-ylamino)ethyl]-4H-pyrido[1,2-a]pyrimidin-4-one trifluoroacetic acid salt]
> 7.30 | Cc1cccc2nc(C(C)Nc3ncnc4[nH]cnc34)c(-c3ccccc3F)c(=O)n12 (centres unmarked) [Example 59, 3-(2-Fluorophenyl)-6-methyl-2-[1-(9H-purin-6-ylamino)ethyl]-4H-pyrido[1,2-a]pyrimidin-4-one trifluoroacetic acid salt]
7.00 to 7.30 | Cc1csc2nc(C(C)Nc3ncnc4[nH]cnc34)c(-c3cccc(F)c3F)c(=O)n12 (centres unmarked) [Example 41, 6-(2,3-difluorophenyl)-3-methyl-7-[1-(9H-purin-6-ylamino)ethyl]-5H-[1,3]thiazolo[3,2-a]pyrimidin-5-one trifluoroacetic acid salt]
> 7.30 | Cc1cccc2nc(C(C)Nc3nc(N)nc4[nH]cnc34)c(-c3cccc(Cl)c3)c(=O)n12 (centres unmarked) [Example 54, 2-{1-[(2-Amino-9H-purin-6-yl)amino]ethyl}-3-(3-chlorophenyl)-6-methyl-4H-pyrido[1,2-a]pyrimidin-4-one trifluoroacetic acid salt]
> 7.30 | Cc1csc2nc(C(C)Nc3ncnc4[nH]cnc34)c(-c3cscn3)c(=O)n12 (centres unmarked) [Example 21, 3-methyl-7-[1-(9H-purin-6-ylamino)ethyl]-6-(1,3-thiazol-4-yl)-5H-[1,3]thiazolo[3,2-a]pyrimidin-5-one trifluoroacetic acid salt]
7.00 to 7.30 | Cc1csc2nc(C(C)Nc3nc(N)nc4[nH]cnc34)c(-c3cccc(Cl)c3)c(=O)n12 (centres unmarked) [Example 32, 7-{1-[(2-amino-9H-purin-6-yl)amino]ethyl}-6-(3-chlorophenyl)-3-methyl-5H-[1,3]thiazolo[3,2-a]pyrimidin-5-one trifluoroacetic acid salt]
> 7.30 | Cc1ccc(-c2c(C(C)Nc3ncnc4[nH]cnc34)nc3cccc(C)n3c2=O)cc1 (centres unmarked) [Example 64, 6-Methyl-3-(4-methylphenyl)-2-[1-(9H-purin-6-ylamino)ethyl]-4H-pyrido[1,2-a]pyrimidin-4-one trifluoroacetic acid salt]
> 7.30 | Cc1csc2nc(C(C)Nc3ncnc4[nH]cnc34)c(-c3ccccc3F)c(=O)n12 (centres unmarked) [Example 40, 6-(2-fluorophenyl)-3-methyl-7-[1-(9H-purin-6-ylamino)ethyl]-5H-[1,3]thiazolo[3,2-a]pyrimidin-5-one trifluoroacetic acid salt]
> 7.30 | Cc1cccc2nc(C(C)Nc3ncnc4[nH]cnc34)c(-c3ccccc3Cl)c(=O)n12 (centres unmarked) [Example 57, 3-(2-Chlorophenyl)-6-methyl-2-[1-(9H-purin-6-ylamino)ethyl]-4H-pyrido[1,2-a]pyrimidin-4-one trifluoroacetic acid salt]

From patent US9975907B2, “Pyrimidinones as PI3K inhibitors” (Incyte Corporation, priority 2009, dated 2018)
